These results are taken from US20240417410A1, “TRICYCLIC COMPOUNDS FOR THE TREATMENT OF CANCER” (Hoffmann-La Roche Inc., priority 2023, published 2024).

One test has as its system AGS cells (KRAS G12D). Nature of the test: Cell viability assay (Cell Counting Kit-8, 3-day). It is filed as cell-based, human. As to conditions: Homo sapiens, 72 h, 72 hrs incubation. As to the method:
(§1) The purpose of this cellular assay was to determine the effects of test compounds on the proliferation of human cancer cell lines NCI-H358 (ATCC-CRL5807) cells, AGS (ATCC-CRL-1739) cells, SW620 (ATCC-CCL-227) over a 3-day treatment period by quantifying the amount of NADPH present at endpoint using Cell Counting Kit-8.
(§2) Cells were seeded at 5,000 cells/well (NCI-H358), 2,000 cells/well (AGS) 2,000 cells/well (SW620) in 96-well assay plates (Corning-3699) and incubated overnight. On the day of the assay, diluted compounds were then added in a final concentration of 0.5% DMSO. After 72 hrs incubation, a tenth of the volume of cell counting kit 8 (Dnjindo-CK04) was added into each well. Read the signal (OD450 minus OD650) using EnVision after 2 hrs incubation. IC50 was determined by fitting a 4-parameter sigmoidal concentration response model.

For the next test, the system named is SW620 cells (KRAS G12V). Nature of the test: Cell viability assay (Cell Counting Kit-8, 3-day). It is filed as cell-based, human. Conditions: Homo sapiens, SW-620; SW620, 72 hrs incubation. As to the method: as §1, §2
A general note: Formazan colour is commonly taken as a measure of viable cells.

Test [1] deals with NCI-H358 cells (KRAS G12C). Put plainly: Cell viability assay (Cell Counting Kit-8, 3-day). Conditions: Homo sapiens, NCI-H358, 72 h, NCI-H358, 72 hrs incubation. It is filed as cell-based, human. As to the method:
as §1, §2

The subject of test [2] is phosphorylation of ERK, KRAS G12C in NCI-H358 cells. Put plainly: pERK inhibition assay. It is filed as cell-based. Conditions: Homo sapiens, NCI-H358, 4 h. How it is done:
(§3) This assay is to measure the ability of test compounds in inhibiting the phosphorylation of ERK, the downstream signaling of KRAS G12C in NCI-H358 cells, KRAS G12D in AGS cells, and KRAS G12V in SW620. NCI-H358 (ATCC-CRL5807) cells, AGS (ATCC-CRL-1739) cells, SW620 (ATCC-CCL-227) cells were all grown and maintained using RPMI-1640 medium (Thermo Fisher Scientific) with 10% fetal bovine serum and 1% penicillin/streptomycin. On the day prior to compound addition, cells were plated in tissue culture-treated 96 well plates (Corning-3699) at a density of 30,000 cell/well, 20,000 cell/well, 30,000 cell/well for NCI-H358, AGS and SW620 respectively, and allowed for attachment overnight. Diluted compounds were then added in a final concentration of 0.5% DMSO. After 4 hours of incubation, the medium was removed, 100 μL of 4% formaldehyde was added, and the assay plates were incubated at room temperature for 20 minutes. The plates were then washed once with phosphate buffered saline (PBS), and permeabilized with 100 μL of chilled methanol for 10 minutes. Non-specific antibody binding to the plates was blocked using 50 μL 1X BSA blocking buffer (Thermo-37520, 10-fold dilution by Phosphate-Buffered Saline Tween (PBST) for at least 1 hour at room temperature.
(§4) The amount of phosphor-ERK was determined using an antibody specific for phosphorylated form of ERK. Primary antibody (PERK, CST-4370, Cell Signaling Technology) was diluted 1:300 in blocking buffer, with 50 μL aliquoted to each well, and incubated overnight at 4° C. Cells was washed five times for 5 minutes with PBST. Secondary antibody (HRP-linked anti-rabbit IgG, CST-7074, Cell Signaling Technology) was diluted 1:1000 in blocking buffer, and 50 μL was added to each well and incubated 1-2 hrs at room temperature. Cells was washed […] for 5 minutes with PBST, 100 μL TMB ELISA substrate (abcam-ab171523) were added and gently shake for 20 minutes. 50 μL stop solution (abcam-ab 171529) were added, and then read the signal (OD450) by EnVision.
(§5) IC50 was determined by fitting a 4-parameter sigmoidal concentration response model.

The subject of test [3] is phosphorylation of ERK, KRAS G12D in AGS cells. Nature of the test: pERK inhibition assay. It is filed as cell-based. As to conditions: Homo sapiens, AGS, 4 h. How it is done:
as §3, §4, §5

Test [4] has as its system phosphorylation of ERK, KRAS G12V in SW620. Nature of the test: pERK inhibition assay. It is filed as cell-based. As to conditions: Homo sapiens, SW-620, 4 h, SW620 cells. As to the method:
as §3, §4, §5

As to `CO[C@@H](C)c1ncc(N2CCN(C)CC2)cc1-c1c2c3cc(cc4c3n1CC(F)(F)C4)-c1csc(n1)C[C@H](NC(=O)[C@H]1C[C@@H]1C(F)F)C(=O)N1CCC[C@H](N1)C(=O)OCC(C)(C)C2` (atropisomer, axis not shown; (M)) [Example 31], the IC50 (in general, the concentration that inhibits the measured activity by half) with AGS cells (KRAS G12D) is 21.8 nM; in the test with SW620 cells (KRAS G12V), less than 0.6 nM; in test [1], 3.1 nM; in test [2], 2.3 nM; in test [3], 19.8 nM; in test [4] it was 1.6 nM.

For `CO[C@@H](C)c1ncc(N2CCOCC2)cc1-c1c2c3cc(cc4c3n1CC(C)(C)O4)-c1csc(n1)C[C@H](NC(=O)[C@H]1C[C@@H]1C)C(=O)N1CCC[C@H](N1)C(=O)OCC(C)(C)C2` (atropisomer, axis not shown; (M)) [Example 38, (1S,2S)-N-[(7S,13S)-(20M)-20-[2-[(1S)-1-methoxyethyl]-5-morpholino-3-pyridyl]-17,17,23,23-tetramethyl-8,14-dioxo-15,24-dioxa-4-thia-9,21,30,31-tetrazahexacyclo[23.3.1.1^2,5.1^9,13.0^19,27.0^21,26]hentriaconta-1 (28),2,5 (31),19,25 (29),26-hexaen-7-yl]-2-methyl-cyclopropanecarboxamide], the IC50 with AGS cells (KRAS G12D) was determined as 120 nM; in the test on SW620 cells (KRAS G12V), 18 nM; in test [1] it was 89.4 nM; in test [2], 8 nM; in test [3], 59.4 nM; in test [4] it was 5.5 nM.

As to `CO[C@@H](C)c1ncc(N2CCOCC2)cc1-c1c2c3cc(cc4c3n1CCO4)-c1csc(n1)C[C@H](NC(=O)[C@H]1C[C@@H]1c1ccccc1)C(=O)N1CCC[C@H](N1)C(=O)OCC(C)(C)C2` (atropisomer, axis not shown; (M)) [Example 43, (1S,2S)-N-[(7S,13S)-(20M)-20-[2-[(1S)-1-methoxyethyl]-5-morpholino-3-pyridyl]-17,17-dimethyl-8,14-dioxo-15,24-dioxa-4-thia-9,21,30,31-tetrazahexacyclo[23.3.1.1^2,5.1^9,13.0^19,27.0^21,26]hentriaconta-1 (29),2,5 (31), 19,25,27-hexaen-7-yl]-2-phenyl-cyclopropanecarboxamide], the IC50 in the test with AGS cells (KRAS G12D) was 11.9 nM; in the test on SW620 cells (KRAS G12V), 0.9 nM; in test [1], 3.6 nM; in test [2], 0.7 nM; in test [3] it was 3.8 nM; in test [4], 0.3 nM.

For `CO[C@@H](C)c1ncc(N2CCN(CC(F)(F)F)CC2)cc1-c1c2c3cc(cc4c3n1CCO4)-c1csc(n1)C[C@H](NC(=O)[C@H]1C[C@@H]1c1ccccc1)C(=O)N1CCC[C@H](N1)C(=O)OCC(C)(C)C2` (atropisomer, axis not shown; (M)) [Example 44, (1S,2S)-N-[(7S,13S)-(20M)-20-[2-[(1S)-1-methoxyethyl]-5-[4-(2,2,2-trifluoroethyl)piperazin-1-yl]-3-pyridyl]-17,17-dimethyl-8,14-dioxo-15,24-dioxa-4-thia-9,21,30,31-tetrazahexacyclo[23.3.1.1^2,5.1^9,13.0^19,27.0^21,26]hentriaconta-1 (29),2,5 (31),19,25,27-hexaen-7-yl]-2-phenyl-cyclopropanecarboxamide], the IC50 with AGS cells (KRAS G12D) was found to be 33.9 nM; with SW620 cells (KRAS G12V), 3.1 nM; in test [1] it was 16.8 nM; in test [2], 2.1 nM; in test [3] it was 9.1 nM; in test [4] it was 1.4 nM.

For `CO[C@@H](C)c1ncc(N2CCOCC2)cc1-c1c2c3cc(cc4c3n1CCC4)-c1csc(n1)C[C@H](NC(=O)[C@H]1C[C@@H]1c1ccccc1)C(=O)N1CCC[C@H](N1)C(=O)OCC(C)(C)C2` (atropisomer, axis not shown; (M)) [Example 46, (1S,2S)-N-[(7S,13S)-(20M)-20-[2-[(1S)-1-methoxyethyl]-5-morpholino-3-pyridyl]-17,17-dimethyl-8,14-dioxo-15-oxa-4-thia-9,21,30,31-tetrazahexacyclo[23.3.1.1^2,5.1^9,13.0^19,27.0^21,26]hentriaconta-1 (29),2,5 (31), 19,25,27-hexaen-7-yl]-2-phenyl-cyclopropanecarboxamide], the IC50 came out at 32.2 nM in the test with AGS cells (KRAS G12D); 2.4 nM with SW620 cells (KRAS G12V); 8.1 nM in test [1]; 0.9 nM in test [2]; 9.1 nM in test [3]; 1 nM in test [4].

Take `CO[C@@H](C)c1ncc(N2CCN(CC(F)(F)F)CC2)cc1-c1c2c3cc(cc4c3n1CC(F)(F)C4)-c1csc(n1)C[C@H](NC(=O)[C@H]1C[C@@H]1C)C(=O)N1CCC[C@H](N1)C(=O)OCC(C)(C)C2` (atropisomer, axis not shown; (M)) [Example 67, (1S,2S)-N-[(7S,13S)-23,23-difluoro-(20M)-20-[2-[(1S)-1-methoxyethyl]-5-[4-(2,2,2-trifluoroethyl)piperazin-1-yl]-3-pyridyl]-17,17-dimethyl-8,14-dioxo-15-oxa-4-thia-9,21,30,31-tetrazahexacyclo[23.3.1.1^2,5.1^9,13.0^19,27.0^21,26]hentriaconta-1 (28),2,5 (31),19,25 (29),26-hexaen-7-yl]-2-methyl-cyclopropanecarboxamide]: the figures for the IC50 in test [2], in test [3] and in test [4] were 2.4 nM, 31.8 nM and 3.2 nM, respectively.

Consider `CO[C@@H](C)c1ncc(N2CCN(C)CC2)cc1-c1c2c3cc(cc4c3n1CCC4)-c1csc(n1)C[C@H](NC(=O)[C@H]1CC[C@H](c3nnnn3C)CC1)C(=O)N1CCC[C@H](N1)C(=O)OCC(C)(C)C2` (atropisomer, axis not shown; (M)) [Example 70, trans-N-[(7S,13S)-(20M)-20-[2-[(1S)-1-methoxyethyl]-5-(4-methylpiperazin-1-yl)-3-pyridyl]-17,17-dimethyl-8,14-dioxo-15-oxa-4-thia-9,21,30,31-tetrazahexacyclo[23.3.1.1^2,5.1^9,13.0^19,27.0^21,26]hentriaconta-1 (29),2,5 (31),19,25,27-hexaen-7-yl]-4-(1-methyltetrazol-5-yl)cyclohexanecarboxamide], for which the IC50 was 98.7 nM with AGS cells (KRAS G12D); 17.9 nM with SW620 cells (KRAS G12V); 24.7 nM in test [1]; 1.8 nM in test [2]; 27.9 nM in test [3]; 5.5 nM in test [4].

On to `CO[C@@H](C)c1ncc(N2CCN(C)CC2)cc1-c1c2c3cc(cc4c3n1CC(F)(F)C4)-c1csc(n1)C[C@H](NC(=O)[C@H]1C[C@@H]1c1ccccc1)C(=O)N1CCC[C@H](N1)C(=O)OCC(C)(C)C2` (atropisomer, axis not shown; (M)) [Example 78], for which the IC50 in the test on AGS cells (KRAS G12D) was 30.6 nM; in the test with SW620 cells (KRAS G12V), 2.3 nM; in test [1], 9.8 nM; in test [2], 2 nM; in test [3], 10.1 nM; in test [4], 1.1 nM.

As for `CO[C@@H](C)c1ncc(N2CCN(C)CC2)cc1-c1c2c3cc(cc4c3n1CCC4)-c1csc(n1)C[C@H](NC(=O)[C@H]1C[C@@H]1c1ncccn1)C(=O)N1CCC[C@H](N1)C(=O)OCC(C)(C)C2` [Example 80, (1S,2S)-N-[(7S,13S)-(20M)-20-[2-[(1S)-1-methoxyethyl]-5-(4-methylpiperazin-1-yl)-3-pyridyl]-17,17-dimethyl-8,14-dioxo-15-oxa-4-thia-9,21,30,31-tetrazahexacyclo[23.3.1.1^2,5.1^9,13.0^19,27.0^21,26]hentriaconta-1 (28),2,5 (31), 19,25 (29),26-hexaen-7-yl]-2-pyrimidin-2-yl-cyclopropanecarboxamide], the IC50 in test [2] is 5.1 nM; in test [3], 47.4 nM; in test [4], 4.2 nM.
